From PubChem BioAssay AID330 (DTP/NCI, 2004) come the findings set out here.

The test system of the assay is P388 leukemia ip, CD2F1 mice, survival T/C. As to the kind of experiment: NCI In Vivo Anticancer Drug Screen. Data for tumor model P388 Leukemia (intraperitoneal) in CD2F1 (CDF1) mice. As to conditions: endpoint: median survival time, higher = longer survival. In a few lines:
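Mice carrying the transplanted tumor received test compound or vehicle. Survival was recorded in each group, and the value is the treated-group measurement divided by that of the vehicle-treated control group.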

[1] abbreviates: dose: 50.0 mg/kg/injection, schedule: Q01DX009 (ip), vehicle: saline with Tween-80.
Where [2] appears, read: dose: 100.0 mg/kg/injection, schedule: Q01DX009 (ip), vehicle: saline with Tween-80.
The mark [3] stands for this setting: dose: 200.0 mg/kg/injection, schedule: Q01DX009 (ip), vehicle: saline with Tween-80.
[4] abbreviates: dose: 25.0 mg/kg/injection, schedule: Q01DX009 (ip), vehicle: saline with Tween-80.
Where [5] appears, read: dose: 60.0 mg/kg/injection, schedule: Q01DX005 (ip), vehicle: Klucel (hydroxypropylcellulose) (HPC).
The mark [6] stands for this setting: dose: 120.0 mg/kg/injection, schedule: Q01DX005 (ip), vehicle: Klucel (hydroxypropylcellulose) (HPC).
[7] abbreviates: dose: 240.0 mg/kg/injection, schedule: Q01DX005 (ip), vehicle: Klucel (hydroxypropylcellulose) (HPC).
Where [8] appears, read: dose: 100.0 mg/kg/injection, schedule: Q04DX003 (ip), vehicle: saline with Tween-80.
Setting [9] is: dose: 200.0 mg/kg/injection, schedule: Q04DX003 (ip), vehicle: saline with Tween-80.
The mark [10] stands for this setting: dose: 400.0 mg/kg/injection, schedule: Q04DX003 (ip), vehicle: saline with Tween-80.

Several values for one entry are separate records, joined by “and”; a condition that tells them apart may be missing. Equal values may be shown once. Inconclusive results and toxic doses are left out.

In the case of `O=C1CN(/N=C/c2ccc(-c3ccc(F)cc3)o2)C(=O)N1`, the T/C by setting is: (dose: 50.0 mg/kg/injection, schedule: Q01DX001 (ip), vehicle: saline with Tween-80) 103 % of control; (dose: 100.0 mg/kg/injection, schedule: Q01DX001 (ip), vehicle: saline with Tween-80) 100 % of control; (dose: 200.0 mg/kg/injection, schedule: Q01DX001 (ip), vehicle: saline with Tween-80) 100 % of control; (dose: 400.0 mg/kg/injection, schedule: Q01DX001 (ip), vehicle: saline with Tween-80) 100 % of control.

On to `CCN(CC)CCCOC(=O)N(Cc1ccc(Cl)cc1)C1CC1`, for which the T/C runs as follows: (dose: 25.0 mg/kg/injection, schedule: Q01DX009 (ip), vehicle: saline + Tween-80 + alcohol) 108 % of control; (dose: 50.0 mg/kg/injection, schedule: Q01DX009 (ip), vehicle: saline + Tween-80 + alcohol) 108 % of control; (dose: 100.0 mg/kg/injection, schedule: Q01DX009 (ip), vehicle: saline + Tween-80 + alcohol) 110 % of control.

With `C#CCn1c2c(c3ccccc3c1=O)C(=O)c1ccccc1-2`, the T/C (dose: 50.0 mg/kg/injection, schedule: Q01DX005 (ip), vehicle: saline with Tween-80) is 88 % of control; the T/C (dose: 100.0 mg/kg/injection, schedule: Q01DX005 (ip), vehicle: saline with Tween-80) was 88 % of control; the T/C (dose: 200.0 mg/kg/injection, schedule: Q01DX005 (ip), vehicle: saline with Tween-80) was 101 % of control.

In the case of `CC(=O)CC(=O)CCCCC(=O)O`, the T/C is 112 % of control under setting [1], 112 % of control under setting [2] and 104 % of control under setting [3].

`c1ccc(N=N/C(=N\Nc2ccccc2)SCCS/C(N=Nc2ccccc2)=N/Nc2ccccc2)cc1`: the T/C is 98 % of control and 97 % of control under setting [4]; 93 % of control and 97 % of control under setting [1]; 111 % of control and 92 % of control under setting [2]; 98 % of control under setting [3].

For `CC12CCCC([N+](=O)[O-])(C1)NC(=O)C2C#N` (stereo unspecified), the T/C under setting [5] was 108 % of control, the T/C under setting [6] is 95 % of control and the T/C under setting [7] is 100 % of control.

On to `COc1cc2c(cc1I)-c1c(cc(OC)c(OC)c1OC)CC[C@@H]2NC(C)=O`, for which the T/C is, setting by setting: (dose: 88.0 mg/kg/injection, schedule: Q01DX009 (ip), vehicle: saline with Tween-80) 118 % of control; (dose: 100.0 mg/kg/injection, schedule: Q01DX009 (ip), vehicle: saline sonified) 95 % of control; under setting [2], 95 % of control; under setting [8], 100 % of control; under setting [3], 100 % of control; under setting [9], 100 % of control. Further, the T/C was 104 % of control (dose: 400.0 mg/kg/injection, schedule: Q01DX009 (ip), vehicle: saline with Tween-80) and 90 % of control under setting [10].

On to `C=C1N=NN(c2ccc([N+](=O)[O-])cc2)C1N1CCOCC1` (stereo unspecified), for which the T/C was 100 % of control under setting [5], 101 % of control under setting [6] and 105 % of control under setting [7].

In the case of `Brc1ccccc1CN=Cc1ccc2c(c1)OCO2`, the T/C is, setting by setting: (dose: 50.0 mg/kg/injection, schedule: Q01DX005 (ip), vehicle: Klucel (hydroxypropylcellulose) (HPC)) 101 % of control; (dose: 100.0 mg/kg/injection, schedule: Q01DX005 (ip), vehicle: Klucel (hydroxypropylcellulose) (HPC)) 105 % of control; (dose: 200.0 mg/kg/injection, schedule: Q01DX005 (ip), vehicle: Klucel (hydroxypropylcellulose) (HPC)) 103 % of control.

With `CCN(CC)CCOC(=O)c1ccc(N)cc1`, the T/C (dose: 50.0 mg/kg/injection, schedule: Q01DX009 (ip), vehicle: saline) is 98 % of control and the T/C (dose: 100.0 mg/kg/injection, schedule: Q01DX009 (ip), vehicle: saline) was 100 % of control.

Consider `CC(C)C(NC(=O)C(C)N(C)C)C(=O)N1CCC2Oc3ccc(cc3)/C=C\NC(=O)C(Cc3ccccc3)NC(=O)C21` (stereo unspecified), for which the T/C under setting [8] was 97 % of control, the T/C under setting [9] was 95 % of control and the T/C under setting [10] was 96 % of control.

In the case of `COc1cc2c(cc1O)NC(OC)C1CC(O)CN1C2=O` (stereo unspecified), the T/C was 121 % of control (dose: 1.0 mg/kg/injection, schedule: Q01DX005 (ip), vehicle: saline with Tween-80); 119 % of control (dose: 2.0 mg/kg/injection, schedule: Q01DX005 (ip), vehicle: saline with Tween-80); 161 % of control (dose: 16.0 mg/kg/injection, schedule: Q01DX005 (ip), vehicle: saline with Tween-80).

As to `CC(Cc1ccccc1)NC(=O)C1CC2CCCCN2C1C` (stereo unspecified), the T/C (dose: 60.0 mg/kg/injection, schedule: Q01DX005 (ip), vehicle: saline with Tween-80) is 97 % of control and the T/C (dose: 120.0 mg/kg/injection, schedule: Q01DX005 (ip), vehicle: saline with Tween-80) is 95 % of control.

In the case of `NC(=O)c1ccccc1NCCc1ccccc1`, the T/C reads like this: (dose: 25.0 mg/kg/injection, schedule: Q04DX003 (ip), vehicle: saline with Tween-80) 91 % of control; (dose: 50.0 mg/kg/injection, schedule: Q04DX003 (ip), vehicle: saline with Tween-80) 100 % of control; under setting [8], 104 % of control and 97 % of control; under setting [10], 97 % of control.

Consider `Cc1cc(O)c(C2(C)CCC3CC32C)cc1Br` (stereo unspecified), for which the T/C runs as follows: under setting [4], 97 % of control; under setting [1], 105 % of control; under setting [2], 107 % of control; under setting [3], 114 % of control.

`CCOC(=O)C1=C(NC(=O)Nc2ccccc2)N(C(=O)Nc2ccccc2)CCC1`: the T/C runs as follows: (dose: 100.0 mg/kg/injection, schedule: Q04DX003 (ip), vehicle: Klucel (hydroxypropylcellulose) (HPC)) 100 % of control; (dose: 200.0 mg/kg/injection, schedule: Q04DX003 (ip), vehicle: Klucel (hydroxypropylcellulose) (HPC)) 99 % of control; (dose: 400.0 mg/kg/injection, schedule: Q04DX003 (ip), vehicle: Klucel (hydroxypropylcellulose) (HPC)) 102 % of control.

With `CCOC(=O)Nc1cc2c(c(N)n1)N=C(c1ccc(Cl)c(Cl)c1)CN2`, the T/C by setting is: (dose: 5.0 mg/kg/injection, schedule: Q01DX005 (ip), vehicle: saline with Tween-80) 121 % of control; (dose: 10.0 mg/kg/injection, schedule: Q01DX005 (ip), vehicle: saline with Tween-80) 158 % of control.

Take `CNC(=O)OCc1c(COC(=O)NC)c(-c2c(F)cccc2F)n2c1CCC2`: the T/C is 166 % of control (dose: 6.25 mg/kg/injection, schedule: Q01DX009 (ip), vehicle: water); 155 % of control (dose: 12.5 mg/kg/injection, schedule: Q01DX009 (ip), vehicle: distilled water + Tween-80); 108 % of control (dose: 25.0 mg/kg/injection, schedule: Q01DX009 (ip), vehicle: distilled water + Tween-80); 88 % of control (dose: 25.0 mg/kg/injection, schedule: Q01DX009 (ip), vehicle: water).

`Cc1cc(O)c(C(=O)/C=C(\O)c2ccccc2)c(=O)o1`: the T/C (dose: 10.5 mg/kg/injection, schedule: Q01DX005 (ip), vehicle: Klucel (hydroxypropylcellulose) (HPC)) is 100 % of control; the T/C (dose: 21.0 mg/kg/injection, schedule: Q01DX005 (ip), vehicle: Klucel (hydroxypropylcellulose) (HPC)) was 102 % of control; the T/C (dose: 42.0 mg/kg/injection, schedule: Q01DX005 (ip), vehicle: Klucel (hydroxypropylcellulose) (HPC)) is 106 % of control; the T/C (dose: 84.0 mg/kg/injection, schedule: Q01DX005 (ip), vehicle: Klucel (hydroxypropylcellulose) (HPC)) is 86 % of control.

Consider `CC(=O)OC(COS(C)(=O)=O)C(OC(C)=O)C(OC(C)=O)C(COS(C)(=O)=O)OC(C)=O` (stereo unspecified), for which the T/C reads like this: (dose: 100.0 mg/kg/injection, schedule: Q01DX001 (ip), vehicle: Klucel (hydroxypropylcellulose) (HPC)) 108 % of control; (dose: 200.0 mg/kg/injection, schedule: Q01DX001 (ip), vehicle: Klucel (hydroxypropylcellulose) (HPC)) 100 % of control; (dose: 400.0 mg/kg/injection, schedule: Q01DX001 (ip), vehicle: Klucel (hydroxypropylcellulose) (HPC)) 117 % of control.

On to `CN(C)N=Nc1ccc(S(N)(=O)=O)cc1`, for which the T/C was 93 % of control (dose: 25.0 mg/kg/injection, schedule: Q01DX009 (ip), vehicle: Klucel (hydroxypropylcellulose) (HPC)); 114 % of control (dose: 50.0 mg/kg/injection, schedule: Q01DX009 (ip), vehicle: Klucel (hydroxypropylcellulose) (HPC)); 100 % of control (dose: 100.0 mg/kg/injection, schedule: Q01DX009 (ip), vehicle: Klucel (hydroxypropylcellulose) (HPC)).
